The values that follow come from US7902187B2, “6-substituted 2-(benzimidazolyl)purine and purinone derivatives for immunosuppression” (Wyeth LLC, priority 2006, dated 2011).

The target of the assay is T1, Jak3 (Homo sapiens, UniProt P52333).
T1 construct: A fragment encoding the catalytic domain of Jak3 (508aa to 1124aa) was ligated with GST at 5′ end; made in house; host or cells: Sf9 insect cells (baculovirus, pFastBac 1)
T1 sequence (P52333 508-1124): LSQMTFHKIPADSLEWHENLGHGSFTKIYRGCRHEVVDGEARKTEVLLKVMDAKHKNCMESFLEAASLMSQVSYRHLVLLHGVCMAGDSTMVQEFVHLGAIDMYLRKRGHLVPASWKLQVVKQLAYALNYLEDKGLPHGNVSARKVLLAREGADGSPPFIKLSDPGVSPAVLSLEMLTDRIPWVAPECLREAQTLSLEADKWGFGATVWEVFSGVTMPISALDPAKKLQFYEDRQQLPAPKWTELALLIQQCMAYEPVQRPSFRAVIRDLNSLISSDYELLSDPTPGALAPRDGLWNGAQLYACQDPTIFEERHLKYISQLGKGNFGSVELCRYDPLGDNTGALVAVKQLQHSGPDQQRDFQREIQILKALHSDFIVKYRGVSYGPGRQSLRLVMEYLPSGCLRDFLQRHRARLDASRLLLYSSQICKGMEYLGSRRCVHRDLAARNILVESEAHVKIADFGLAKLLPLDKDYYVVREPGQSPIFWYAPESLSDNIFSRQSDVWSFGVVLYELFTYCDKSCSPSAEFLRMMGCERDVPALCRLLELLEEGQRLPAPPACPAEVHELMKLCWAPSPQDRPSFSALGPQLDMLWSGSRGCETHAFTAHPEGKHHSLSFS
Nature of the assay: Jak3 Kinase Assay (HTRF). In kind it is biochemical. The note with it: GST-Jak3 catalytic domain, 1 μM ATP, 60-min incubation; read-out: Jak3 Kinase, IC50 representation. The method, then:
Human Jak3 cDNA was amplified by PCR. A fragment encoding the catalytic domain of Jak3 (508aa to 1124aa) was ligated with GST at 5′ end. This fused GST-Jak3 DNA fragment was cloned into the EcoRI site of the donor plasmid pFastBac 1 (Life Technologies #10359-016). The transformation, transposition, and transfection of insect cells (Sf9) were performed according to the manufacture's instructions. The cell lysate containing recombinant GST-Jak3 was used in the kinase assay. Anti-GST antibody (10 μg/ml, Sigma #G1417) was coated onto a 384-well plate at 4° C. overnight. Cell lysate containing GST-Jak3 (1:100 dilution) was added to the anti-GST coated plates, and GST-Jak3 was captured by immobilized anti-GST antibody. Testing compounds and substrate mix (50 mM HEPES, pH 7, 0.5 mM Na3VO4, 25 mM MgCl2, 1 mM DTT, 0.005% BSA, 1 μM ATP, and 4.5 μg/ml biotinyl poly-Glu,Ala,Tyr) were added to the plate to initiate the reaction. After a 60-min incubation, the reaction was stopped by 4 mM EDTA, and phosphorylation of biotinyl poly-Glu,Ala,Tyr was detected using 17 μg/ml Cy5-streptavidin (Amersham, #PA92005) and 2.7 μg/ml Europium-conjugated anti-phosphotyrosine antibody (PerkinElmer #AD0069) using homogeneous time-resolved fluorescence (HTRF) technology.
Background: In TR-FRET formats the signal depends on donor and acceptor labels being close together.
`O=c1[nH]c2c(-c3ccc(Cl)cc3)nc(-n3cnc4ccc(F)cc43)nc2n1[C@@H]1CCOc2c(F)cccc21`: the IC50 was in the range of 100 to 1000 nM.

Turning to `O=c1[nH]c2c(-c3ccc(Cl)cc3)nc(-n3cnc4ccc(F)cc43)nc2n1C1CCOCC1`, the IC50 was 100 to 1000 nM.

As to `CNC(=O)c1nc(-n2cnc3ccc(F)cc32)nc2c1[nH]c(=O)n2C1CCOCC1`, the IC50 is less than 100 nM.

On to `CC(C)(C)OC(=O)N1CC(Nc2nc(-n3cnc4ccc(F)cc43)nc3c2[nH]c(=O)n3C2CCOCC2)C1`, for which the IC50 was less than 100 nM.

Consider `NC(=O)C1CCN(c2nc(-n3cnc4ccc(Cl)cc43)nc3c2[nH]c(=O)n3C2CCOCC2)CC1`, for which the 50% inhibitory concentration (IC50) was less than 100 nM.

For `COc1ccc(-c2nc(-n3cnc4ccc(F)cc43)nc3c2[nH]c(=O)n3C2CCOCC2)cn1`, the IC50 is less than 100 nM.

As to `Cn1c(=O)n([C@H]2CC[C@H](O)CC2)c2nc(-n3cnc4ccc(F)cc43)nc(N3CC[C@@H](F)C3)c21`, the IC50 is less than 100 nM.

On to `CC(c1cccnc1)n1c(=O)[nH]c2c(N3CC(F)(F)C3)nc(-n3cnc4ccc(C#N)cc43)nc21` (stereo not shown), for which the IC50 was less than 100 nM.

`Cn1c(=O)n([C@H]2CC[C@H](O)CC2)c2nc(-n3cnc4ccc(F)cc43)nc(N3CCCC3)c21`: the half-maximal inhibitory concentration (IC50) is less than 100 nM.

`CC(C)(C)OC(=O)N1CC(Nc2nc(-n3cnc4ccc(Cl)cc43)nc3c2[nH]c(=O)n3C2CCOCC2)C1`: the IC50 was less than 100 nM.

Consider `Cn1c(=O)n(C2CCOCC2)c2nc(-n3cnc4ccc(Cl)cc43)nc(NCC(F)(F)CCl)c21`, for which the IC50 was less than 100 nM.

With `CC1CCN(c2nc(-n3cnc4ccc(Cl)cc43)nc3c2[nH]c(=O)n3C2CCOCC2)CC1`, the IC50 was 100 to 1000 nM.

On to `CCc1noc(CNc2nc(-n3cnc4ccc(F)cc43)nc3c2[nH]c(=O)n3C2CCOCC2)n1`, for which the half-maximal inhibitory concentration (IC50) was less than 100 nM.

Turning to `N#Cc1ccc2ncn(-c3nc(N4CC(F)(F)C4)c4[nH]c(=O)n([C@H]5CC[C@H](O)CC5)c4n3)c2c1`, the concentration for half-maximal inhibition (IC50) was less than 100 nM.

For `N#Cc1ccc2ncn(-c3nc(NCCCN)c4[nH]c(=O)n(C5CCOCC5)c4n3)c2c1`, the half-inhibitory concentration (IC50) was less than 100 nM.

As to `O=c1[nH]c2c(-c3cccc(Cl)c3)nc(-n3cnc4ccc(F)cc43)nc2n1C1CCOCC1`, the IC50 was in the range of 100 to 1000 nM.

For the compound `O=c1[nH]c2c(N3CCCCC3)nc(-n3cnc4ccc(F)cc43)nc2n1C1CCOCC1`, the IC50 is less than 100 nM.

Take `O=c1[nH]c2c(Cc3ccccc3)nc(-n3cnc4ccc(F)cc43)nc2n1[C@@H]1CCOc2c(F)cccc21`: the IC50 lay in the range of 100 to 1000 nM.

On to `O=c1[nH]c2c(N3CC(F)(F)C(F)(F)C3)nc(-n3cnc4ccc(F)cc43)nc2n1C1CCOCC1`, for which the 50% inhibitory concentration (IC50) was less than 100 nM.

In the case of `O=C(c1nc(-n2cnc3ccc(F)cc32)nc2c1[nH]c(=O)n2C1CCOCC1)N1CCCCC1`, the half-maximal inhibitory concentration (IC50) is 100 to 1000 nM.

For the compound `O=c1[nH]c2c(N3CC[C@@H](F)C3)nc(-n3cnc4ccc(F)cc43)nc2n1C1CCOCC1`, the IC50 is less than 100 nM.

Consider `CN1CCN(c2nc(-n3cnc4ccc(C#N)cc43)nc3c2[nH]c(=O)n3C2CCOCC2)CC1`, for which the IC50 was less than 100 nM.

For `O=c1[nH]c2c(CO)nc(-n3cnc4ccc(F)cc43)nc2n1C1CCOc2ccccc21` (stereo not shown), the half-maximal inhibitory concentration (IC50) was less than 100 nM.

As for `CN(C)C(=O)CNc1nc(-n2cnc3ccc(F)cc32)nc2c1[nH]c(=O)n2C1CCOCC1`, the half-inhibitory concentration (IC50) is less than 100 nM.

Take `N#Cc1ccc2ncn(-c3nc(NC4CCCC4)c4[nH]c(=O)n(C5CCOCC5)c4n3)c2c1`: the IC50 is less than 100 nM.

Turning to `N#Cc1ccc2ncn(-c3nc(N4CCNCC4)c4[nH]c(=O)n(C5CCOCC5)c4n3)c2c1`, the IC50 was less than 100 nM.

`O=c1[nH]c2c(NCC3CNC3)nc(-n3cnc4ccc(F)cc43)nc2n1C1CCOCC1`: the half-maximal inhibitory concentration (IC50) was less than 100 nM.

As for `N#Cc1ccc2ncn(-c3nc(-c4ccncc4)c4[nH]c(=O)n(C5CCOCC5)c4n3)c2c1`, the IC50 was less than 100 nM.

Turning to `O=c1[nH]c2c(N3CCC(F)CC3)nc(-n3cnc4ccc(F)cc43)nc2n1C1CCOCC1`, the IC50 is less than 100 nM.

For `CCCCc1nc(-n2cnc3ccc(F)cc32)nc2c1[nH]c(=O)n2[C@@H]1CCOc2c(F)cccc21`, the half-maximal inhibitory concentration (IC50) was greater than 1000 nM.

Regarding `Cn1c(=O)n([C@H]2CC[C@H](O)CC2)c2nc(-n3cnc4ccc(Cl)cc43)nc(N3CC[C@@H](F)C3)c21`, the 50% inhibitory concentration (IC50) is less than 100 nM.

With `Cn1c(=O)n([C@H]2CC[C@H](O)CC2)c2nc(-n3cnc4ccc(Cl)cc43)nc(N3CCC(F)(F)CC3)c21`, the IC50 was less than 100 nM.

Take `Cn1c(=O)n([C@H]2CC[C@H](O)CC2)c2nc(-n3cnc4ccc(F)cc43)nc(N3CCC(F)CC3)c21`: the IC50 was less than 100 nM.

In the case of `CN1CCC(Nc2nc(-n3cnc4ccc(C#N)cc43)nc3c2[nH]c(=O)n3C2CCOCC2)CC1`, the concentration for half-maximal inhibition (IC50) is less than 100 nM.

As to `O=c1[nH]c2c(N3CCC3)nc(-n3cnc4ccc(F)cc43)nc2n1[C@@H]1CCOc2c(F)cccc21`, the IC50 was less than 100 nM.

Turning to `COc1ccc(-c2nc(-n3cnc4ccc(F)cc43)nc3c2[nH]c(=O)n3C2CCOCC2)cc1`, the half-maximal inhibitory concentration (IC50) was less than 100 nM.

As for `O=c1[nH]c2c(-c3ccccc3Cl)nc(-n3cnc4ccc(F)cc43)nc2n1C1CCOCC1`, the 50% inhibitory concentration (IC50) was greater than 1000 nM.

Regarding `O=c1[nH]c2c(N[C@@H]3CCC[C@@H]3O)nc(-n3cnc4ccc(F)cc43)nc2n1C1CCOCC1`, the 50% inhibitory concentration (IC50) was less than 100 nM.

Turning to `CO[C@H]1CC[C@H](n2c(=O)[nH]c3c(Cl)nc(-n4cnc5ccc(C#N)cc54)nc32)CC1`, the IC50 lay within 100 to 1000 nM.

As to `N#Cc1ccc2ncn(-c3nc(N4CC(F)(F)C4)c4[nH]c(=O)n(C5CCOCC5)c4n3)c2c1`, the IC50 is less than 100 nM.

As to `N#Cc1ccc2ncn(-c3nc(N4CC(F)(F)C4)c4[nH]c(=O)n(Cc5cccnc5)c4n3)c2c1`, the half-maximal inhibitory concentration (IC50) was less than 100 nM.

For the compound `O=c1[nH]c2c(N3CC(F)(F)C3)nc(-n3cnc4ccc(Cl)cc43)nc2n1C1CCOCC1`, the IC50 was less than 100 nM.

`N#CCNC(=O)c1nc(-n2cnc3ccc(F)cc32)nc2c1[nH]c(=O)n2C1CCOc2ccccc21` (stereo not shown): the IC50 was less than 100 nM.

As to `O=c1[nH]c2c(-c3ccncc3)nc(-n3cnc4ccc(F)cc43)nc2n1C1CCOCC1`, the 50% inhibitory concentration (IC50) was less than 100 nM.

Regarding `O=C(O)c1nc(-n2cnc3ccc(F)cc32)nc2c1[nH]c(=O)n2C1CCOCC1`, the IC50 was 100 to 1000 nM.

As for `O=c1[nH]c2c(-c3cncnc3)nc(-n3cnc4ccc(F)cc43)nc2n1C1CCOCC1`, the IC50 was less than 100 nM.

As to `NC(=O)c1nc(-n2cnc3ccc(F)cc32)nc2c1[nH]c(=O)n2C1CCOc2ccccc21` (stereo not shown), the half-inhibitory concentration (IC50) is less than 100 nM.

Take `O=c1[nH]c2c(Cl)nc(-n3cnc4ccc(F)cc43)nc2n1[C@@H]1CCOc2c(F)cccc21`: the IC50 is less than 100 nM.

For the compound `Cc1ncccc1Cn1c(=O)[nH]c2c(N3CC(F)(F)C3)nc(-n3cnc4ccc(C#N)cc43)nc21`, the IC50 was less than 100 nM.

In the case of `Cn1c(=O)n([C@H]2CC[C@H](O)CC2)c2nc(-n3cnc4ccc(Cl)cc43)nc(N3CCC(F)CC3)c21`, the IC50 was less than 100 nM.

As for `N#Cc1ccc2ncn(-c3nc(N4CCS(=O)(=O)CC4)c4[nH]c(=O)n(C5CCOCC5)c4n3)c2c1`, the half-inhibitory concentration (IC50) is less than 100 nM.

For the compound `COCCNc1nc(-n2cnc3ccc(Cl)cc32)nc2c1[nH]c(=O)n2C1CCOCC1`, the IC50 was less than 100 nM.

Consider `Cn1c(=O)n([C@H]2CC[C@H](O)CC2)c2nc(-n3cnc4ccc(Cl)cc43)nc(N3CC(F)(F)C3)c21`, for which the 50% inhibitory concentration (IC50) was less than 100 nM.

Take `Cn1c(=O)n([C@H]2CC[C@H](O)CC2)c2nc(-n3cnc4ccc(C#N)cc43)nc(-c3ccncc3)c21`: the half-maximal inhibitory concentration (IC50) was less than 100 nM.

Regarding `CC(C)(C)OC(=O)N1CC(CNc2nc(-n3cnc4ccc(F)cc43)nc3c2[nH]c(=O)n3C2CCOCC2)C1`, the IC50 was less than 100 nM.

For the compound `O=c1[nH]c2c(NCCCO)nc(-n3cnc4ccc(Cl)cc43)nc2n1C1CCOCC1`, the IC50 was less than 100 nM.

For `Cc1nc2c(-c3ccncc3)nc(-n3cnc4ccc(Cl)cc43)nc2n1C1CCOCC1`, the IC50 was less than 100 nM.

`CCC(C)c1nc(-n2cnc3ccc(F)cc32)nc2c1[nH]c(=O)n2[C@@H]1CCOc2c(F)cccc21` (stereo partly shown): the IC50 was greater than 1000 nM.

As for `N#Cc1ccc2ncn(-c3nc(NCC4CC4)c4[nH]c(=O)n(C5CCOCC5)c4n3)c2c1`, the IC50 was less than 100 nM.

As for `O=c1[nH]c2c(N3CC(O)C3)nc(-n3cnc4ccc(Cl)cc43)nc2n1C1CCOCC1`, the concentration for half-maximal inhibition (IC50) is less than 100 nM.

For the compound `O=c1[nH]c2c(N3CC(O)C3)nc(-n3cnc4ccc(F)cc43)nc2n1[C@@H]1CCOc2c(F)cccc21`, the IC50 is less than 100 nM.

The term IC50 denotes the point on the concentration scale where inhibition reaches its midpoint.
